According to US11110070B2 (priority 2015, dated 2021):
Entries after “also recorded” stand apart in the source; their conditions may differ. Where a name gives a salt, the structure may show the parent alone.

Tests used:
129S6/SvEv mice = experiment: FST after prophylactic ketamine or ketamine metabolites (FIG. 15); type: in vivo; settings: at 10 and 30 mg/kg
129S6/SvEvTac mice [1] = experiment: Forced swim test (FST) in social defeat (SD) model; type: in vivo
Description: Experiment 1 (Pre-ketamine in social defeat (SD)): At 8 weeks of age, a single injection of saline (0.9% NaCl) or ketamine (K) (10, 30, or 90 mg kg^−1) (Ketaset III, Ketamine HCl, Fort Dodge Animal Health, Forth Dodge, Iowa) was administered. Ketamine was prepared in physiological saline and all injections were administered intraperitoneally (i.p.) in volumes of 0.1 cc per […]. […] At 9 weeks of age, 1 week following this injection, SD was started.
24 h after the last bout of SD, a single injection of saline or ketamine (30 mg kg^−1) was administered (mice were 11 weeks old). The forced swim test (PST) was administered 2 h following the injection.
(§1) Experiment 3 (Pre-fluoxetine in SD): At 6 weeks of age, fluoxetine hydrochloride (Fix) (BioTrend Chemicals AG, B6197) was administered in the drinking water (18 mg kg^−1/day) for 3 weeks before the start of SD. Starting at 9 weeks of age, SD was then administered for 2 weeks without vehicle or Flx in the drinking water.
(§2) Adult aggressor CD-1 male mice were single-housed in Macrolon® polycarbonate resin cages (15.25 in×7.8 in×9.5 in) (Animal Care Systems, Inc., Centennial, Colo.). Male 129S6/SvEvTac mice (9 weeks of age) were subsequently placed into the resident. CD-1 mouse's cage. Three antagonistic encounters were allowed between the CD-1 mouse and the intruder. Each of these encounters typically lasted less than 5 min. Following the encounters, mice were separated by a polished stainless steel cage divider (Animal Care Systems, Inc., Centennial, Colo., P/N C79171), which allowed for olfactory and auditory communication, but limited visual or tactile contact. The partition was removed daily for 2 weeks and 3 antagonistic encounters were allowed between the mice each day. This procedure consistently yielded a submissive phenotype in the experimental intruder mice. Control (Ctrl) mice were group housed 4 to 5 per cage in Macrolon® polycarbonate resin cages without dividers.
The FST was administered as previously described (A11). Briefly, mice were placed into clear plastic buckets 20 cm in diameter and 23 cm deep filled ⅔ of the way with 22° C. water. Mice were videotaped, from the side for 6 min and were exposed to the swim test on 2 consecutive days. For the SI) experiments, scoring was performed using an automated Viewpoint Videotrack software package (http://www.viewpoint.fr/en/a/anxiety-and-depression). For the CORT experiments, automated scoring was done using the automated X'PERT EST software suite (Bioseb, Vitrolles, France). The dependent variable was immobility.

129S6/SvEvTac mice [2] = experiment: Fighting behavior during SD bouts; type: in vivo; settings: SD-Flx vs SD-Veh
Description: as §2

C57BL/6NTac mice [3] = experiment: FST in chronic corticosterone (CORT) model; type: in vivo; settings: ketamine 90 mg kg^−1 or fluoxetine 18 mg kg^−1/day, before 3 weeks of CORT; hydrochloride
C57BL/6NTac mice [4] = experiment: NSF in CORT model; type: in vivo; settings: treatment after 4 weeks of CORT; 14 days after the start of treatment
Description: Experiment 5 (Pre-ketamine and pre-fluoxetine corticosterone (CORT)): C57BL16NTac mice were injected with ketamine (10, 30, 90 mg kg^−1, i.p.) 1 week before the start of CORT, or administered fluoxetine (18 mg kg^−1 per day) in the drinking water for 3 weeks before the start of CORT. Ketamine was purchased from Merial (100 mg/ml stock solution). Fluoxetine hydrochloride (160 μg/mL, equivalent to 18 mg kg^−1 per day in the drinking water) was purchased from Anawa Trading (Zurich, Switzerland) and dissolved in 0.45% hydroxypropyl-β-cyclodextrin (β-CD) (Sigma-Aldrich, Saint-Quentin Fallavier, France) solution. Following ketamine or fluoxetine treatment, CORT was administered for 3 weeks in the drinking water. CORT (4-pregnen-11b-DIOL-3 20-DIONE 21-hemisuccinate) (35 μg/ml) from. Sigma Aldrich (Saint-Quentin Fallavier, France) was dissolved in vehicle (0.45% β-CD). Control animals received vehicle (0.45% β-CD) throughout the duration of the experiment. […]
Testing was performed as previously described (A13). […] The latency of the mice to begin eating was recorded. Immediately after the latency was recorded, the food pellet was removed from the arena. The mice were then placed into a cage and the amount of food consumed in 5 min was measured (home cage consumption), followed by an assessment of post-restriction weight. […]

C57BL/6NTac mice [5] = experiment: EPM in CORT model; type: in vivo; settings: ketamine or fluoxetine before CORT
Description: Experiment 5 (Pre-ketamine and pre-fluoxetine corticosterone (CORT)): C57BL16NTac mice were injected with ketamine (10, 30, 90 mg kg^−1, i.p.) 1 week before the start of CORT, or administered fluoxetine (18 mg kg^−1 per day) in the drinking water for 3 weeks before the start of CORT. Ketamine was purchased from Merial (100 mg/ml stock solution). Fluoxetine hydrochloride (160 μg/mL, equivalent to 18 mg kg^−1 per day in the drinking water) was purchased from Anawa Trading (Zurich, Switzerland) and dissolved in 0.45% hydroxypropyl-β-cyclodextrin (β-CD) (Sigma-Aldrich, Saint-Quentin Fallavier, France) solution. Following ketamine or fluoxetine treatment, CORT was administered for 3 weeks in the drinking water. CORT (4-pregnen-11b-DIOL-3 20-DIONE 21-hemisuccinate) (35 μg/ml) from. Sigma Aldrich (Saint-Quentin Fallavier, France) was dissolved in vehicle (0.45% β-CD). Control animals received vehicle (0.45% β-CD) throughout the duration of the experiment.
Testing was performed as previously described (A14). […] For the 12956/SvEv experiments, videos were scored using behavioral tracking software (TopScan, CleverSys, Reston, Va.). For the C57BL/6Ntac experiments, all parameters were measured using a videotracker (EPM3C. Bioseb, Vitrolles, France).

[6] = Body weight in CORT model; type: in vivo, mice; settings: ketamine 90 mg kg^−1 single injection or fluoxetine 18 mg kg^−1 for 3 weeks, before CORT
C57BL/6NTac mice [7] = experiment: Tail suspension test (TST) after CORT; type: in vivo; settings: after 4 weeks of CORT; ketamine 10 mg kg^−1 one injection or fluoxetine 18 mg kg^−1 per day; both time points
Description: Experiment 6 (Post-ketamine and post-fluoxetine in CORT); In C57BL/6NTac mice. vehicle or CORT was administered for 4 weeks in the drinking water. While administration with 0.45% β-CD or CORT continued, mice were injected with saline or ketamine (10 mg kg^−1), or were administered vehicle or chronic fluoxetine (18 mg kg^−1 per day in the drinking water).
The TST was administered as previously described (A2). Briefly, animals were suspended for 6 min and immobility during this period was assessed using an automated TST apparatus (Bioseb, Vitrolles, France). A specific strain gauge linked to a computer quantifies the time spent by each mouse trying to escape.

129S6/SvEvTac mice [8] = experiment: Other behaviors following fluoxetine treatment before SD; type: in vivo; settings: fluoxetine 3 weeks before SD
Description: as §1

Row | SMILES | prophylactic efficacy (behavioral despair, FST) (129S6/SvEv mice) | immobility time, day 2 of FST (129S6/SvEvTac mice [1]; Ctrl mice, fluoxetine 18 mg kg^−1 for 3 weeks, vs Ctrl-Veh) | immobility time, day 2 of FST (129S6/SvEvTac mice [1]; SD mice, fluoxetine 18 mg kg^−1 for 3 weeks before SD) | behavior during SD bouts (129S6/SvEvTac mice [2]) | immobility time on day 2 in the FST (C57BL/6NTac mice [3]) | latency to feed in NSF (C57BL/6NTac mice [4]) | time in the closed arms of EPM (anxiety-like phenotype) (C57BL/6NTac mice [5]) | CORT-induced increase in body weight [6] | immobility time in the TST (C57BL/6NTac mice [7]) | anxiety or cognition (129S6/SvEvTac mice [8])
1 | N[C@@]1(c2ccccc2Cl)CCC[C@@H](O)C1=O [HNK, (2R,6R)-hydroxynorketamine] | efficacious as prophylactics | – | – | – | – | – | – | – | – | –
2 | CNCCC(Oc1ccc(C(F)(F)F)cc1)c1ccccc1 (stereo not shown) [fluoxetine, fluoxetine hydrochloride] | – | equal levels of immobility time | did not improve immobility time | do not display differences during SD bouts | decreased immobility time; also recorded: significantly reduced immobility | decreased the latency to feed | Neither ketamine nor fluoxetine robustly protected | prevented the CORT-induced increase in body weight | decreased immobility time in the TST | did not significantly alter anxiety or cognition
